{"source": "patent US12465610B2", "about": "“Compounds and methods for the treatment of PKR-associated diseases” (Board of Regents, The University of Texas System, priority 2019, dated 2025)", "key": {"PKR": {"biological_target": "PKR (Homo sapiens, UniProt P19525)", "sequence (P19525 whole entry)": "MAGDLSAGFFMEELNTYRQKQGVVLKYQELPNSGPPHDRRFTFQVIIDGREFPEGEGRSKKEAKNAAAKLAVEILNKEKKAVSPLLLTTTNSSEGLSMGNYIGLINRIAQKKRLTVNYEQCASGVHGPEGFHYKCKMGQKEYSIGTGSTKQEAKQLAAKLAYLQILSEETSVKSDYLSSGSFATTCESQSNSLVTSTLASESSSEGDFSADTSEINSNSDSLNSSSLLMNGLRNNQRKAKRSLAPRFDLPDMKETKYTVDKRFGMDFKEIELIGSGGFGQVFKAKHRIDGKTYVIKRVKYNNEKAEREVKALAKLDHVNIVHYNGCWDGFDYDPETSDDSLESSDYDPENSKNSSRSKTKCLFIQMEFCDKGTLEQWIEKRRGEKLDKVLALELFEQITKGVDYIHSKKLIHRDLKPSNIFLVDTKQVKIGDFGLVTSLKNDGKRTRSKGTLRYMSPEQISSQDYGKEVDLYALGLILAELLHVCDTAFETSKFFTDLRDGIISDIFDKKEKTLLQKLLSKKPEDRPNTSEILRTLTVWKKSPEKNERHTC", "assay": "ADP-Glo kinase assay, high-throughput enzymatic screening (Reaction Biology)", "type": "biochemical"}, "PI4KIIIa": {"biological_target": "PI4KIIIa (Homo sapiens, UniProt P42356)", "sequence (P42356 whole entry)": "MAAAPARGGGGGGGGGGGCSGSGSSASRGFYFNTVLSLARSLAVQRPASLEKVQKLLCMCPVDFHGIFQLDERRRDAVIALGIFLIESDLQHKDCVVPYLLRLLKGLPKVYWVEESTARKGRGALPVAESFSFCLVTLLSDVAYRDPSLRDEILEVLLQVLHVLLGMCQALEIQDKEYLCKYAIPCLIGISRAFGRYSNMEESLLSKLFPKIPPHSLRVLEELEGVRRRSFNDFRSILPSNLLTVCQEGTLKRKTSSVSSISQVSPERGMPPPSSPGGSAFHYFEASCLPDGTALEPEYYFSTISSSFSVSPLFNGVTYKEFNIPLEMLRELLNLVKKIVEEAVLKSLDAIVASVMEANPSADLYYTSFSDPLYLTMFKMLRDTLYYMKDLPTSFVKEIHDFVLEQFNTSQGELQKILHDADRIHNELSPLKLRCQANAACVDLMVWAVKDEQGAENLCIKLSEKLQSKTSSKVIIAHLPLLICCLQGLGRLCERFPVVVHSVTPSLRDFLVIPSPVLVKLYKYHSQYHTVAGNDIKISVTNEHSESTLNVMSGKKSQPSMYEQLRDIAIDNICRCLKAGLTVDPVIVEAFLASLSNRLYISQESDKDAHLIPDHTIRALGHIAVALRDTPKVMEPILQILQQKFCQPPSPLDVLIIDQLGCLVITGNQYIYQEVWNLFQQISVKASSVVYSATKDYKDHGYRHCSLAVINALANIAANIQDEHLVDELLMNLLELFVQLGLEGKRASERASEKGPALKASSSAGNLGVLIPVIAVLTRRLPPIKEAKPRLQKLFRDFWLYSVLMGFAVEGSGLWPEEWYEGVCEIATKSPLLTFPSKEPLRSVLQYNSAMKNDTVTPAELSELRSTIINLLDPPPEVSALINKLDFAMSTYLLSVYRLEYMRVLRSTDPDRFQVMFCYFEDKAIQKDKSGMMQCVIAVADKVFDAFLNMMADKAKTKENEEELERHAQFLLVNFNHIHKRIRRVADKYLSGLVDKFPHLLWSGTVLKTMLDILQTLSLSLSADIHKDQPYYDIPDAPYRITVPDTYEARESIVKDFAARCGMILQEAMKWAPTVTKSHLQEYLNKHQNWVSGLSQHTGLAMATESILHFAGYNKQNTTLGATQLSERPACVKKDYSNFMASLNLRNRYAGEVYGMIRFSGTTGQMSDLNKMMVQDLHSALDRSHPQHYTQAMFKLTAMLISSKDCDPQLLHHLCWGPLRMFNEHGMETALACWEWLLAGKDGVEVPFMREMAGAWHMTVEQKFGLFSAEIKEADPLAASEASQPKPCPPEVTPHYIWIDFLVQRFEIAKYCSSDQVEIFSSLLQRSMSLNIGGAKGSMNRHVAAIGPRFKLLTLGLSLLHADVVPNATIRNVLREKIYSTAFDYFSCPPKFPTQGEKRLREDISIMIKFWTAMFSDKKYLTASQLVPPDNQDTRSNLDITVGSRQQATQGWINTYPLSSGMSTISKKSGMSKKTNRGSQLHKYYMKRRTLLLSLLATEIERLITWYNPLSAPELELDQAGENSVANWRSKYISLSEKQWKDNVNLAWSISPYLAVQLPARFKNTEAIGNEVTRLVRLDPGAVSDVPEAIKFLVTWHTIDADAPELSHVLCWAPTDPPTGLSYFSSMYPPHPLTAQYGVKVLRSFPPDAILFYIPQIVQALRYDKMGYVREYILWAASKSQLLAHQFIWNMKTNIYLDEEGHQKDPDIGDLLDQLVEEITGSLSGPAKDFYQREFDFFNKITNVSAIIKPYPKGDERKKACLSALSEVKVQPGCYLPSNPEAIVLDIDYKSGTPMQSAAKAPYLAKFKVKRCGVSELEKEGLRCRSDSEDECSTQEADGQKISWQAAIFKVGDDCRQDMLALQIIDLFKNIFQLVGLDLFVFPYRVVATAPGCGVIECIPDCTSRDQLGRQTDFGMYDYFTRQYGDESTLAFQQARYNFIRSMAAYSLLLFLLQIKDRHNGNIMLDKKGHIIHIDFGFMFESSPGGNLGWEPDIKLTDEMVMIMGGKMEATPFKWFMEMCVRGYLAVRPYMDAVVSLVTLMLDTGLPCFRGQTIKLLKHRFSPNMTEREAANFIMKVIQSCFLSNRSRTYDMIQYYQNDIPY", "assay": "ADP-Glo kinase assay, high-throughput enzymatic screening (Reaction Biology)", "type": "biochemical"}, "PI4KIIIb": {"biological_target": "PI4KIIIb (Homo sapiens, UniProt Q9UBF8)", "assay": "ADP-Glo kinase assay, high-throughput enzymatic screening (Reaction Biology)", "type": "biochemical"}, "PI3Ka": {"biological_target": "PI3Ka (Homo sapiens, UniProt P42336)", "assay": "ADP-Glo kinase assay, high-throughput enzymatic screening (Reaction Biology)", "type": "biochemical"}, "PI3 Kg": {"biological_target": "PI3 Kg (Homo sapiens, UniProt P48736)", "sequence (P48736 whole entry)": "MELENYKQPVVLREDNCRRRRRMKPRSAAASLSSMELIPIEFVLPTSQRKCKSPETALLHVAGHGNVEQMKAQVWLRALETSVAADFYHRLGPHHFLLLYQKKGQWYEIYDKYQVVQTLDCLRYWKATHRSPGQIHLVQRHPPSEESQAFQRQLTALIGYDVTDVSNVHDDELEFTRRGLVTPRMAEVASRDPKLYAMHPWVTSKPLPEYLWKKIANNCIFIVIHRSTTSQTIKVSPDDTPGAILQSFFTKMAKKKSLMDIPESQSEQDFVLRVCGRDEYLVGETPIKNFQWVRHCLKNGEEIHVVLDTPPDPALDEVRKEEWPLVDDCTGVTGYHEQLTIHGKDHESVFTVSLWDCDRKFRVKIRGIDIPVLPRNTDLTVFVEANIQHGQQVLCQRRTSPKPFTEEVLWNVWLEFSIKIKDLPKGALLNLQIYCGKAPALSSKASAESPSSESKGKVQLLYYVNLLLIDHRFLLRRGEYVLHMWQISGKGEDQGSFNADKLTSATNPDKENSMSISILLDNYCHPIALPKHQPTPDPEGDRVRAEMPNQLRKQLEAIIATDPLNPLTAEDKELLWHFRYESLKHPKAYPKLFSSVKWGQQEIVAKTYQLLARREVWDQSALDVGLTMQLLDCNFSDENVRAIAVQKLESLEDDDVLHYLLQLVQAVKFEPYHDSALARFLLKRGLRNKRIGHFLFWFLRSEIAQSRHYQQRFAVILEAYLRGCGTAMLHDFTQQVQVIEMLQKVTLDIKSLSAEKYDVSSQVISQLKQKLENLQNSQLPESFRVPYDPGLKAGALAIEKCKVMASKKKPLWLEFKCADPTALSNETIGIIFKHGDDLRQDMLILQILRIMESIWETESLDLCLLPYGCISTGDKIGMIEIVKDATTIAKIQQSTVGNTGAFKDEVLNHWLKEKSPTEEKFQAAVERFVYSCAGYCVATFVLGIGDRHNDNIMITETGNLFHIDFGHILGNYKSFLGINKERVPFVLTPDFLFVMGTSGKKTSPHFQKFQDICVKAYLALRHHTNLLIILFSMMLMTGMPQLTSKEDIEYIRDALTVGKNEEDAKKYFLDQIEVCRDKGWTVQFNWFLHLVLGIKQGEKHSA", "assay": "ADP-Glo kinase assay, high-throughput enzymatic screening (Reaction Biology)", "type": "biochemical"}, "PIM1": {"biological_target": "PIM1 (Homo sapiens, UniProt P11309)", "sequence (P11309 whole entry)": "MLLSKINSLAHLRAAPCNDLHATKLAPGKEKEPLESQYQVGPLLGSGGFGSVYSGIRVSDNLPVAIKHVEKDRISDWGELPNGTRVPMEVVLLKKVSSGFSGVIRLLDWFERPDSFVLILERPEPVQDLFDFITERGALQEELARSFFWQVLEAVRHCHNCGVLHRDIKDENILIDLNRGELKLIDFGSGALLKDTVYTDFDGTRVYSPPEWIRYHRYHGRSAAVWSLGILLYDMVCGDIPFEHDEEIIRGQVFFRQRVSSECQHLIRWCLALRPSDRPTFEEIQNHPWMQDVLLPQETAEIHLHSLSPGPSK", "assay": "High-throughput enzymatic screening", "type": "biochemical"}, "[1]": {"test_system": "normal cells (HBE, human mammary epithelial cells)", "assay": "SRB cell viability assay, normal cells", "type": "cell-based", "settings": "72 hours after treatment, HBE and human mammary epithelial cells", "method": "The effects of Pac 1 and Pac 2 were next examined on PKR protein expression in HeLa cells using Western blot analysis. […] No reduction in normal cell viability was observed after treatment with Pac 1 or Pac 2 (FIGS. 5F and G). […] Because most of the cancer cell lines that were tested were more sensitive to Pac 1 than to Pac 2, Pac 1 was further investigated.\n(§1) Cell viability assays: For SRB assays, cells (2-8×10^3/well in 100 μL of culture medium) were seeded in 96-well flat-bottomed plates and treated the next day with compounds at the indicated concentrations. After the indicated treatments, cells were fixed with trichloroacetic acid. The protein was stained with SRB, and the optical density at 570 nm was determined. Relative cell viability was calculated by setting the viability rate of the control cells (exposed only to dimethyl sulfoxide) at 100% and comparing the viability of the treated cells with that of the controls. The experiments were performed at least three times for each cell line. The viability of leukemia cell lines was determined by using a 3-(4,5-dimethylthiazol-2-yl)-2,5-diphenyltetrazolium bromide assay.\nFor the SRB assay, cells (2-8×10^3/well in 100 μL of culture medium) were seeded in 96-well flat-bottomed plates and treated the next day with compounds at the indicated concentrations. […] The cells were stained using SRB, and the optical density at 570 nm was determined. […]"}, "[2]": {"test_system": "127 human lung cancer cell lines", "assay": "SRB assay, oncopanel of 127 lung cancer cell lines", "type": "cell-based", "description": "Antiproliferative effect of Pac 1 and Pac 2 on an oncopanel of lung cancer cell lines: The antiproliferative effect of treatment with Pac1 were further tested on an oncopanel of 127 cell lines of various lung tumor origins. […] RPPA analysis of Pac 1-sensitive cells identified correlation with higher expression of GSK3 (FIG. 16B), and Pac 1-resistant cells correlation with higher expression of IRS1, Caveolin and PKCA (PS657) (FIG. 16B). Analyzed the Pac1 sensitivity with gene mutation observed that low Pac 1 IC50 correlated with VCAN and ZNF804A mutation, and high Pac 1 IC50 correlated with LOXHD1 and CDH12 mutation (FIG. 16C). VCAN mutant lung cancer cells are sensitive to treatment of Pac 1.\nas §1"}, "leukemia cell lines": {"test_system": "leukemia cell lines", "assay": "3-(4,5-dimethylthiazol-2-yl)-2,5-diphenyltetrazolium bromide viability assay", "type": "cell-based", "method": "as §1"}, "PKR and p-PKR": {"test_system": "PKR and p-PKR", "assay": "Western blot of PKR and p-PKR protein expression", "type": "cell-based, human"}, "[3]": {"test_system": "lysosomes and MVBs/exosomes", "assay": "Transmission electron microscopy (TEM) of treated cells", "type": "cell-based, human"}, "[4]": {"biological_target": "PKR coimmunoprecipitated with PI4K2A (Homo sapiens, UniProt Q9BTU6)", "sequence (Q9BTU6 whole entry, looked up)": "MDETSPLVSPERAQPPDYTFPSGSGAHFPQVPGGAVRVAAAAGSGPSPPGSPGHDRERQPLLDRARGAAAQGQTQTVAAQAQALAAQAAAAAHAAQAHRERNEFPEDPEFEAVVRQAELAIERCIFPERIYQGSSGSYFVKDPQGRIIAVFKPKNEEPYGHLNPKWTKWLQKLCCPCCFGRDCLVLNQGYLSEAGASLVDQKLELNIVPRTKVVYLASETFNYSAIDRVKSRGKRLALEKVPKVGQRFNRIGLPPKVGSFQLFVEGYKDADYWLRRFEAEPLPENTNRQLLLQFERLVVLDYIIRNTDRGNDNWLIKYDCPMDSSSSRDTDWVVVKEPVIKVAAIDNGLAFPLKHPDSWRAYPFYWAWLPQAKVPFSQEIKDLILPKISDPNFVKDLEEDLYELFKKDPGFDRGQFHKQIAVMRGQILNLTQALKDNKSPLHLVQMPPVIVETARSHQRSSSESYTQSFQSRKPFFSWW", "type": "cell-based"}, "[5]": {"test_system": "p-4EBP1, eEF2K, GSK3ab, IRS1 and Caveolin", "assay": "RPPA assay of 156 proteins", "type": "cell-based, human", "settings": "H1299 and A549 cells, 72 hours; Pac 1 5 and 10 μM, Pac 2 10 μM", "method": "The translation regulator eukaryotic […] 4EBP1 is phosphorylated by and is a substrate of PIM3 and PIM1. To further determine whether treatment with Pac 1 affects PIM3/1 downstream targets, the expression of 156 proteins in H1299 and A549 cells was analyzed after treatment with Pac 1 or Pac 2 using an RPPA assay. […] Others reported cross-talk of PP2A with PKR and 4EBP1 protein in cancer cells."}, "p-4EBP1 (T70), PP2A": {"test_system": "p-4EBP1 (T70), PP2A", "assay": "Western blot of p-4EBP1 and p-PP2Ac", "type": "cell-based, human", "settings": "H1299 and A549 cells"}, "Toxicity in mice": {"assay": "Toxicity in mice", "settings": "50 mg/kg intravenously daily for 7 days"}}}
{"compound": "O=C(N/N=C\\c1c(O)ccc2ccccc12)c1cccc2cc[nH]c12", "note": "[Pac 1, N′—[(Z)-(2-Hydroxy-1-naphthyl)methylene]-1H-indole-7-carbohydrazide]", "values": [{"measurement": "inhibition of PKR kinase activity", "setting": "PKR", "value": "did not inhibit"}, {"measurement": "inhibition of kinase activity", "setting": "PI4KIIIa", "value": "not other kinases"}, {"measurement": "inhibition of kinase activity", "setting": "PI4KIIIb", "value": "not other kinases"}, {"measurement": "inhibition of kinase activity", "setting": "PI3Ka", "value": "not other kinases"}, {"measurement": "inhibition of kinase activity", "setting": "PI3 Kg", "value": "not other kinases"}, {"measurement": "inhibition of PIM3/1 activity", "setting": "PIM1", "value": "markedly inhibited"}, {"measurement": "normal cell viability", "setting": "[1]", "value": "No reduction"}, {"measurement": "IC50", "setting": "[2]; Homo sapiens, sensitive cell lines of the oncopanel of 127 lung cancer cell lines", "value": "10 to 950", "unit": "nM"}, {"measurement": "sensitivity of VCAN mutant lung cancer cells", "setting": "[2]; VCAN mutants versus VCAN wild-type cells", "value": "sensitive"}, {"measurement": "share of cell lines sensitive", "setting": "[2]; oncopanel of 127 cell lines of various lung tumor origins", "value": "Sixty-five"}, {"measurement": "growth of leukemia cell lines", "setting": "leukemia cell lines", "value": "growth inhibition"}, {"measurement": "PKR and p-PKR expression", "setting": "PKR and p-PKR; A549 and H1299 cells, 5 μM, 72 hours", "value": "markedly reduced"}, {"measurement": "expression of PKR and p-PKR", "setting": "PKR and p-PKR; HeLa cells, 72 hours after treatment", "value": "significantly reduced"}, {"measurement": "PKR, p-PKR, and PI4K2A expression", "setting": "PKR and p-PKR; LOVO colon cancer cells, 72 hours, various doses", "value": "reduced PKR, p-PKR, and PI4K2A expression"}, {"measurement": "PKR expression", "setting": "PKR and p-PKR; breast cancer cell lines, 72 hours, various doses", "value": "reduced PKR expression"}, {"measurement": "lysosomes by TEM", "setting": "[3]; HeLa cells, 5 μM", "value": "destruction of lysosomes"}, {"measurement": "lysosomes and MVBs/exosomes by TEM", "setting": "[3]; HeLaPKRkd cells", "value": "a lack of lysosomes but enrichment of MVBs/exosomes"}, {"measurement": "amount of PKR coimmunoprecipitated with PI4K2A", "setting": "[4]", "value": "decreased to undetectable levels"}, {"measurement": "levels of p-4EBP1 (S65, T37, and T70), eEF2K, GSK3ab, IRS1 and Caveolin", "setting": "[5]", "value": "significantly inhibited"}, {"measurement": "PP2A activity, indicated by dissociation of the p-PP2Ac complex", "setting": "p-4EBP1 (T70), PP2A", "value": "Inactivation of PP2A was observed"}, {"measurement": "expression of p-4EBP1 (T70) protein", "setting": "p-4EBP1 (T70), PP2A; 72 hours after treatment", "value": "reduction of expression"}, {"measurement": "blood chemistry: aspartate aminotransferase, SGOT, SGPT, alkaline phosphatase, creatine kinase, lactate dehydrogenase levels", "setting": "Toxicity in mice", "value": "normal"}, {"measurement": "histopathologic examination of major organs", "setting": "Toxicity in mice; heart, lungs, liver, kidneys, pancreas, spleen", "value": "no significant changes in any major organs"}]}
